Measurements as given in US20150050219A1, “COLOURED SOLUTION IN PARTICULAR FOR USE IN SURGICAL METHODS FOR THE TREATMENT OF THE BODIES OF HUMANS OR ANIMALS” (BBS S.r.l., priority 2012, published 2015).

Test: density at 20° C.
Assay type: physicochemical
Conditions: temperature of 20° C.
Experimental: whilst the dye is defined by the formula (V) and is present in a weight ratio of 0.008% to the solvent. In particular, with the solvent consisting of perfluorooctane (VI), the solution has an absorbance equal to 1,403 at a wavelength of 580 nm. Said solution also has a density of 1,756 kg/l at a temperature of 20° C. (substantially equal to that of perfluorooctane alone which, at 20° C., is equal to 1,755).

**Q.** Which density does the source give for `FC(F)(F)C(F)(F)C(F)(F)C(F)(F)C(F)(F)C(F)(F)C(F)(F)C(F)(F)F` [perfluorooctane] here?
**A.** The density was 1,755 kg/l.
